Measured values published in patent US11000033B2, “Ketone or oxime compound, and herbicide” (NISSAN CHEMICAL CORPORATION, priority 2014, dated 2021).

What was measured:
Assay type in all cases: in vivo
[1] = system: rice; assay: Test Example 4: effect on crop by soil treatment (symbol b)
Outline: (§1)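 Seeds were sown in spots on sterilized diluvial soil in a plastic box and covered with about 1.5 cm of soil. Plants were then grown in a greenhouse at 25° C. to 30° C.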

[2] = system: Echinochloa crus-galli var. crus-galli; assay: Test Example 5: herbicidal effect by foliage application, plastic box (symbol H); settings: 3 weeks after application
Outline: (§2)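 Sowing in sterilized diluvial soil, 14 days' greenhouse growth at 25° C. to 30° C., then uniform small-sprayer foliar application of aqueous emulsion dilution; plants scored three weeks afterwards.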

[3] = system: Avena fatua; assay: Test Example 4: herbicidal effect by soil treatment (symbol I)
Outline: (§3)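 Seeds were sown in sterilized diluvial soil, covered with about 1.5 cm of soil, and the soil surface was sprayed with a water-diluted emulsion of the compound at a predetermined rate. Plants grew in a greenhouse at 25° C. to 30° C.; effects were scored visually 3 weeks after application.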

[4] = system: corn; assay: Test Example 4: effect on crop by soil treatment (symbol c)
Outline: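 The test used sterilized diluvial soil. Seed was set down in spots and overlaid with about 1.5 cm of soil before growth in a greenhouse kept at 25° C. to 30° C.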

[5] = system: Alopecurus myosuroides; assay: Test Example 5: herbicidal effect by foliage application, plastic box (symbol J); settings: 3 weeks after application
Outline: as §2

[6] = system: Monochoria vaginalis; assay: Test Example 2: herbicidal activity, application during weed generation in submerged conditions (symbol C); settings: Table 23, grade 0-5 by criteria of Test Example 1
Outline: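 Steps: fill pots with alluvial soil; add water to 4 cm depth; co-sow the three weeds; grow at 25° C. to 30° C. under glass; at 1–2 leaves, dose the floodwater with diluted emulsion; rate damage visually after 3 weeks.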

[7] = system: corn; assay: Test Example 5: effect on crop by foliage application, plastic box (symbol c); settings: 3 weeks after application
Outline: (§4)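 Box culture: sterile diluvial soil, seeds spot-sown, ~1.5 cm cover, raised under glass at 25–30° C.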

[8] = system: Leptochloa chinensis; assay: Test Example 3: herbicidal effect by foliage application, Wagner pot (symbol D)
Outline: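 Post-emergence, paddy-type test: seedlings 14 d old in shallow-flooded (0.1–0.5 cm) alluvial soil, 25–30 °C greenhouse. Emulsion diluted to target rate, sprayed on leaves. Read-out: visual effect on each species at 3 weeks, per set criteria.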

[9] = system: rapeseed; assay: Test Example 4: effect on crop by soil treatment (symbol g)
Outline: as §1

[10] = system: Digitaria ciliaris; assay: Test Example 4: herbicidal effect by soil treatment (symbol F)
Outline: as §3

[11] = system: soybean; assay: Test Example 5: effect on crop by foliage application, plastic box (symbol d); settings: 3 weeks after application
Outline: as §4

[12] = application herbicide amount 320 g/ha
[13] = application herbicide amount 192 g/ha

SMILES | H: Echinochloa crus-galli var. crus-galli, herbicidal effect grade ([2]; 320 g/ha) | J: Alopecurus myosuroides, herbicidal effect grade ([5]; 320 g/ha) | Herbicidal effect grade, C: Monochoria vaginalis [6, 12] | c: corn, effect on crop grade ([7]; 320 g/ha) | d: soybean, effect on crop grade ([11]; 320 g/ha) | b (directly sowed rice plant) effect on crop grade [1, 12] | I (Avena fatua) herbicidal effect grade [3, 12] | c (corn) effect on crop grade [4, 12] | herbicidal effect on D (Leptochloa chinensis), grade 0-5 [8, 12] | g (rapeseed) effect on crop grade [9, 12] | F (Digitaria ciliaris) herbicidal effect grade [10, 12] | other results
CCC(=O)CC1CC(O)=C(c2c(C)cc(Br)cc2OC)C1=O (racemic) [14-002] | 5 (Herbicidal ratio of 90% or more (almost completely withered)) | 5 (Herbicidal ratio of 90% or more (almost completely withered)) | 0 (Herbicidal ratio of 5% or lower (almost no effect)) | 5 (Herbicidal ratio of 90% or more (almost completely withered)) | 1 (Herbicidal ratio of 5% or higher and lower than 20%) | – | – | – | – | – | – | b: directly sowed rice plant, effect on crop grade [1, 12]: 5 (Herbicidal ratio of 90% or more (almost completely withered)); I: Avena fatua, herbicidal effect grade [3, 12]: 0 (Herbicidal ratio of 5% or lower (almost no effect)); c: corn, effect on crop grade [4, 12]: 1 (Herbicidal ratio of 5% or higher and lower than 20%); D (Leptochloa chinensis) herbicidal effect grade ([8]; application herbicide amount 320 g/ha, Table 24): 5 (Herbicidal ratio of 90% or more (almost completely withered)); g: rapeseed, effect on crop grade [9, 12]: 0 (Herbicidal ratio of 5% or lower (almost no effect)); F: Digitaria ciliaris, herbicidal effect grade [10, 12]: 5 (Herbicidal ratio of 90% or more (almost completely withered))
CON=C(C)CC1CC(OC(=O)C(C)(C)C)=C(c2c(C)cc(C)cc2C)C1=O (centres unmarked) [1-004, 2-mesityl-4-{2-(methoxyimino)propyl}-3-oxocyclopent-1-en-1-yl pivalate] | 5 (Herbicidal ratio of 90% or more (almost completely withered)) | 5 (Herbicidal ratio of 90% or more (almost completely withered)) | 4 (Herbicidal ratio of 70% or higher and lower than 90%) | 5 (Herbicidal ratio of 90% or more (almost completely withered)) | 4 (Herbicidal ratio of 70% or higher and lower than 90%) | 5 (Herbicidal ratio of 90% or more (almost completely withered)) | 5 (Herbicidal ratio of 90% or more (almost completely withered)) | 4 (Herbicidal ratio of 70% or higher and lower than 90%) | 5 (Herbicidal ratio of 90% or more (almost completely withered)) | 4 (Herbicidal ratio of 70% or higher and lower than 90%) | 5 (Herbicidal ratio of 90% or more (almost completely withered)) | –
CON=C(C)CC1CC(OC(C)=O)=C(c2c(C)cc(C)cc2C)C1=O (centres unmarked) [1-005] | 5 (Herbicidal ratio of 90% or more (almost completely withered)) | 5 (Herbicidal ratio of 90% or more (almost completely withered)) | 4 (Herbicidal ratio of 70% or higher and lower than 90%) | 5 (Herbicidal ratio of 90% or more (almost completely withered)) | 4 (Herbicidal ratio of 70% or higher and lower than 90%) | 5 (Herbicidal ratio of 90% or more (almost completely withered)) | 5 (Herbicidal ratio of 90% or more (almost completely withered)) | 4 (Herbicidal ratio of 70% or higher and lower than 90%) | 5 (Herbicidal ratio of 90% or more (almost completely withered)) | 4 (Herbicidal ratio of 70% or higher and lower than 90%) | 5 (Herbicidal ratio of 90% or more (almost completely withered)) | –
CON=C(C)CC1CC(OS(C)(=O)=O)=C(c2c(C)cc(C)cc2C)C1=O (centres unmarked) [1-006] | 5 (Herbicidal ratio of 90% or more (almost completely withered)) | 5 (Herbicidal ratio of 90% or more (almost completely withered)) | 3 (Herbicidal ratio of 40% or higher and lower than 70%) | 3 (Herbicidal ratio of 40% or higher and lower than 70%) | 4 (Herbicidal ratio of 70% or higher and lower than 90%) | 5 (Herbicidal ratio of 90% or more (almost completely withered)) | 3 (Herbicidal ratio of 40% or higher and lower than 70%) | 1 (Herbicidal ratio of 5% or higher and lower than 20%) | 5 (Herbicidal ratio of 90% or more (almost completely withered)) | 0 (Herbicidal ratio of 5% or lower (almost no effect)) | 5 (Herbicidal ratio of 90% or more (almost completely withered)) | –
C=CCOC1=C(c2c(C)cc(C)cc2C)C(=O)C(CC(C)=NOC)C1 (centres unmarked) [1-007] | 0 (Herbicidal ratio of 5% or lower (almost no effect)) | 3 (Herbicidal ratio of 40% or higher and lower than 70%) | 0 (Herbicidal ratio of 5% or lower (almost no effect)) | 0 (Herbicidal ratio of 5% or lower (almost no effect)) | 0 (Herbicidal ratio of 5% or lower (almost no effect)) | 0 (Herbicidal ratio of 5% or lower (almost no effect)) | 0 (Herbicidal ratio of 5% or lower (almost no effect)) | 0 (Herbicidal ratio of 5% or lower (almost no effect)) | 5 (Herbicidal ratio of 90% or more (almost completely withered)) | 0 (Herbicidal ratio of 5% or lower (almost no effect)) | 0 (Herbicidal ratio of 5% or lower (almost no effect)) | –
CON=C(C)CC1CC(OC(=O)C2CCCO2)=C(c2c(C)cc(C)cc2C)C1=O (centres unmarked) [1-076] | – | – | – | – | – | – | – | – | – | – | – | b: directly sowed rice plant, effect grade on crop ([1]; 192 g/ha): 5 (Herbicidal ratio of 90% or more (almost completely withered)); H: Echinochloa crus-galli var. crus-galli, herbicidal effect (criteria 0-5) ([2]; 192 g/ha): 5 (Herbicidal ratio of 90% or more (almost completely withered)); I: Avena fatua, herbicidal effect grade ([3]; 192 g/ha): 4 (Herbicidal ratio of 70% or higher and lower than 90%); c: corn, effect grade on crop ([4]; 192 g/ha): 2 (Herbicidal ratio of 20% or higher and lower than 40%); J: Alopecurus myosuroides, herbicidal effect (criteria 0-5) ([5]; 192 g/ha): 5 (Herbicidal ratio of 90% or more (almost completely withered)); Herbicidal effect grade, C: Monochoria vaginalis [6, 13]: 0 (Herbicidal ratio of 5% or lower (almost no effect)); c: corn, effect on crop (criteria 0-5) ([7]; 192 g/ha): 4 (Herbicidal ratio of 70% or higher and lower than 90%); herbicidal effect on D (Leptochloa chinensis), grade 0-5 [8, 13]: 5 (Herbicidal ratio of 90% or more (almost completely withered)); g: rapeseed, effect grade on crop ([9]; 192 g/ha): 4 (Herbicidal ratio of 70% or higher and lower than 90%); F: Digitaria ciliaris, herbicidal effect grade ([10]; 192 g/ha): 5 (Herbicidal ratio of 90% or more (almost completely withered)); d: soybean, effect on crop (criteria 0-5) ([11]; 192 g/ha): 4 (Herbicidal ratio of 70% or higher and lower than 90%)
CON=C(C)CC1CC(OC(=O)C(CSC)=NOC)=C(c2c(C)cc(C)cc2C)C1=O (centres unmarked) [1-098] | – | – | 3 (Herbicidal ratio of 40% or higher and lower than 70%) | – | – | – | – | – | 5 (Herbicidal ratio of 90% or more (almost completely withered)) | – | – | b: directly sowed rice plant, effect grade on crop ([1]; 320 g/ha): 5 (Herbicidal ratio of 90% or more (almost completely withered)); H: Echinochloa crus-galli var. crus-galli, herbicidal effect (criteria 0-5) ([2]; 320 g/ha): 5 (Herbicidal ratio of 90% or more (almost completely withered)); I: Avena fatua, herbicidal effect grade ([3]; 320 g/ha): 2 (Herbicidal ratio of 20% or higher and lower than 40%); c: corn, effect grade on crop ([4]; 320 g/ha): 5 (Herbicidal ratio of 90% or more (almost completely withered)); J: Alopecurus myosuroides, herbicidal effect (criteria 0-5) ([5]; 320 g/ha): 5 (Herbicidal ratio of 90% or more (almost completely withered)); c: corn, effect on crop (criteria 0-5) ([7]; 320 g/ha): 5 (Herbicidal ratio of 90% or more (almost completely withered)); g: rapeseed, effect grade on crop ([9]; 320 g/ha): 5 (Herbicidal ratio of 90% or more (almost completely withered)); F: Digitaria ciliaris, herbicidal effect grade ([10]; 320 g/ha): 5 (Herbicidal ratio of 90% or more (almost completely withered)); d: soybean, effect on crop (criteria 0-5) ([11]; 320 g/ha): 3 (Herbicidal ratio of 40% or higher and lower than 70%)
